One assay deals with HL-60. As to the kind of experiment: Antiproliferative activity against human HL60 cells after 24 hrs by MTT assay. Type of assay: functional. For orientation: Tetrazolium assays rely on reduction of a dye to a coloured formazan, in cell work by metabolically active cells.
Another assay concerns MDA-MB-435. As to the kind of experiment: Antiproliferative activity against human MDA-MB-435 cells after 24 hrs by MTT assay. In kind it is functional.

We go through 1 compound from ChEMBL document CHEMBL4145553, “Design, synthesis, and biological evaluation of novel amide and hydrazide based thioether analogs targeting Histone deacteylase (HDAC) enzymes” (Eur J Med Chem, 2018).

As for `CC(/C=C/C(=O)NO)=C\[C@@H](C)C(=O)c1ccc(N(C)C)cc1` [TRICHOSTATIN], the results for the GI50 with HL-60 and in the assay on MDA-MB-435 were 590 nM and 1780 nM, respectively.

As a reminder, the GI50 is the concentration that inhibits growth by half.
